The results in this text go back to patent publication US11470846B2, “Herbicidal pyridino-/pyrimidino-thiazoles” (SYNGENTA PARTICIPATIONS AG, priority 2014, dated 2022).

The first assay relates to Avena fatua (AVEFA). In words: Pre-emergence herbicidal activity. In kind it is in vivo. The settings on record: pre-emergence application, 1000 g/Ha, evaluated after 13 days, scale 0-5. The essentials: (§1)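 Seeds sown in standard soil, sprayed one day after sowing with active ingredient formulated in acetone/water (50:50) with 0.5% Tween 20. Glasshouse at 24/16 °C day/night, 14 h light, 65% humidity, watered twice daily; damage scored after 13 days on a 0–5 scale (5 = total damage).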
With `Cc1nc(-c2cncc(C#N)c2)sc1N(C)C(=O)OC(C)(C)C` [Compound A7], the “Control of weed species, AVEFA (damage score)” value (“Control of weed species, AVEFA” below) came to 4.

In the case of `CCOC(=O)N(C)c1sc(-c2cccnc2)nc1C` [Compound A19, ethyl N-methyl-N-[4-methyl-2-(3-pyridyl)thiazol-5-yl]carbamate], the “Control of weed species, AVEFA” value amounted to 1.

Turning to `Cc1nc(-c2cncc(C=O)c2)sc1N(C)C(=O)OC(C)(C)C` [Compound A5], the “Control of weed species, AVEFA” value is 0.

Turning to `CSc1cncc(-c2nc(C)c(N(C)C(=O)OC(C)(C)C)s2)c1` [Compound A12], the “Control of weed species, AVEFA” value turned out to be 3.

The next assay deals with Oryza sativa (ORYSA). Kind of assay: Pre-emergence herbicidal activity. In kind it is in vivo. Conditions: pre-emergence application, 1000 g/Ha, evaluated after 13 days, scale 0-5. The essentials:
as §1
Take `Cc1nc(-c2cncc(C#N)c2)sc1N(C)C(=O)OC(C)(C)C` [Compound A7]: the “Control of weed species, ORYSA (damage score)” value (“Control of weed species, ORYSA” below) is recorded as 1.

Turning to `CCOC(=O)N(C)c1sc(-c2cccnc2)nc1C` [Compound A19, ethyl N-methyl-N-[4-methyl-2-(3-pyridyl)thiazol-5-yl]carbamate], the “Control of weed species, ORYSA” value amounted to 0.

Regarding `Cc1nc(-c2cncc(C=O)c2)sc1N(C)C(=O)OC(C)(C)C` [Compound A5], the “Control of weed species, ORYSA” value is reported as 0.

As to `CSc1cncc(-c2nc(C)c(N(C)C(=O)OC(C)(C)C)s2)c1` [Compound A12], the “Control of weed species, ORYSA” value was 0.

The next assay has as its system Alopecurus myosuroides (ALOMY). Kind of assay: Pre-emergence herbicidal activity. Format: in vivo. Conditions: pre-emergence application, 1000 g/Ha, evaluated after 13 days, scale 0-5. The procedure, abridged: as §1
With `Cc1nc(-c2cncc(C#N)c2)sc1N(C)C(=O)OC(C)(C)C` [Compound A7], the “Control of weed species, ALOMY (damage score)” value (“Control of weed species, ALOMY” below) was found to be 1.

As for `CCOC(=O)N(C)c1sc(-c2cccnc2)nc1C` [Compound A19, ethyl N-methyl-N-[4-methyl-2-(3-pyridyl)thiazol-5-yl]carbamate], the “Control of weed species, ALOMY” value was 1.

For `Cc1nc(-c2cncc(C=O)c2)sc1N(C)C(=O)OC(C)(C)C` [Compound A5], the “Control of weed species, ALOMY” value is 0.

Take `CSc1cncc(-c2nc(C)c(N(C)C(=O)OC(C)(C)C)s2)c1` [Compound A12]: the “Control of weed species, ALOMY” value was 0.

Another assay deals with Echinochloa crus-galli (ECHCG). In words: Pre-emergence herbicidal activity. In kind it is in vivo. The settings on record: pre-emergence application, 1000 g/Ha, evaluated after 13 days, scale 0-5; Table 5. The essentials:
as §1
In the case of `Cc1nc(-c2cncc(C#N)c2)sc1N(C)C(=O)OC(C)(C)C` [Compound A7], the “Control of weed species, ECHCG (damage score)” value (“Control of weed species, ECHCG” below) turned out to be 2.

As to `CCOC(=O)N(C)c1sc(-c2cccnc2)nc1C` [Compound A19, ethyl N-methyl-N-[4-methyl-2-(3-pyridyl)thiazol-5-yl]carbamate], the “Control of weed species, ECHCG” value amounted to 5.

In the case of `Cc1nc(-c2cncc(C=O)c2)sc1N(C)C(=O)OC(C)(C)C` [Compound A5], the “Control of weed species, ECHCG” value stood at 0.

For the molecule `CSc1cncc(-c2nc(C)c(N(C)C(=O)OC(C)(C)C)s2)c1` [Compound A12], the “Control of weed species, ECHCG” value stood at 3.

The next assay deals with Triticum aestivium (TRZAW). Kind of assay: Pre-emergence herbicidal activity. Format: in vivo. Conditions: pre-emergence application, 1000 g/Ha, evaluated after 13 days, scale 0-5. The procedure, abridged:
as §1
On to `Cc1nc(-c2cncc(C#N)c2)sc1N(C)C(=O)OC(C)(C)C` [Compound A7], for which the “Control of weed species, TRZAW (damage score)” value (“Control of weed species, TRZAW” below) worked out at 1.

On to `CCOC(=O)N(C)c1sc(-c2cccnc2)nc1C` [Compound A19, ethyl N-methyl-N-[4-methyl-2-(3-pyridyl)thiazol-5-yl]carbamate], for which the “Control of weed species, TRZAW” value was 0.

On to `Cc1nc(-c2cncc(C=O)c2)sc1N(C)C(=O)OC(C)(C)C` [Compound A5], for which the “Control of weed species, TRZAW” value is 0.

With `CSc1cncc(-c2nc(C)c(N(C)C(=O)OC(C)(C)C)s2)c1` [Compound A12], the “Control of weed species, TRZAW” value worked out at 0.

A further assay concerns Lolium perenne (LOLPE). Kind of assay: Pre-emergence herbicidal activity. In kind it is in vivo. Conditions: pre-emergence application, 1000 g/Ha, evaluated after 13 days, scale 0-5; Table 5. The procedure, abridged: as §1
With `Cc1nc(-c2cncc(C#N)c2)sc1N(C)C(=O)OC(C)(C)C` [Compound A7], the “Control of weed species, LOLPE (damage score)” value (“Control of weed species, LOLPE” below) is 2.

`CCOC(=O)N(C)c1sc(-c2cccnc2)nc1C` [Compound A19, ethyl N-methyl-N-[4-methyl-2-(3-pyridyl)thiazol-5-yl]carbamate]: the “Control of weed species, LOLPE” value is recorded as 1.

`Cc1nc(-c2cncc(C=O)c2)sc1N(C)C(=O)OC(C)(C)C` [Compound A5]: the “Control of weed species, LOLPE” value is listed as 0.

Consider `CSc1cncc(-c2nc(C)c(N(C)C(=O)OC(C)(C)C)s2)c1` [Compound A12], for which the “Control of weed species, LOLPE” value was 1.

The next assay has as its system Avena fatua (AVEFA). In words: Post-emergence herbicidal activity. In kind it is in vivo. Conditions: post-emergence application, 1000 g/Ha, evaluated after 13 days, scale 0-5. The procedure, abridged: (§2)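 Young plants, 8 days old, receive a foliar spray of compound in 50:50 acetone/water containing 0.5% Tween 20. Growth continues in a glasshouse with twice-daily watering, and injury is rated 13 days later from 0 to 5.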
Regarding `Cc1nc(-c2cncc(C#N)c2)sc1N(C)C(=O)OC(C)(C)C` [Compound A7], the “Control of weed species, AVEFA” value was found to be 4.

As for `CCOC(=O)N(C)c1sc(-c2cccnc2)nc1C` [Compound A19, ethyl N-methyl-N-[4-methyl-2-(3-pyridyl)thiazol-5-yl]carbamate], the “Control of weed species, AVEFA” value worked out at 3.

Take `Cc1nc(-c2cncc(C=O)c2)sc1N(C)C(=O)OC(C)(C)C` [Compound A5]: the “Control of weed species, AVEFA” value stood at 0.

As for `CSc1cncc(-c2nc(C)c(N(C)C(=O)OC(C)(C)C)s2)c1` [Compound A12], the “Control of weed species, AVEFA” value stood at 2.

The next assay has as its system Oryza sativa (ORYSA). Kind of assay: Post-emergence herbicidal activity. In kind it is in vivo. The settings on record: post-emergence application, 1000 g/Ha, evaluated after 13 days, scale 0-5. The essentials:
as §2
For `Cc1nc(-c2cncc(C#N)c2)sc1N(C)C(=O)OC(C)(C)C` [Compound A7], the “Control of weed species, ORYSA” value was found to be 1.

Consider `CCOC(=O)N(C)c1sc(-c2cccnc2)nc1C` [Compound A19, ethyl N-methyl-N-[4-methyl-2-(3-pyridyl)thiazol-5-yl]carbamate], for which the “Control of weed species, ORYSA” value came out at 0.

With `Cc1nc(-c2cncc(C=O)c2)sc1N(C)C(=O)OC(C)(C)C` [Compound A5], the “Control of weed species, ORYSA” value is given as 0.

With `CSc1cncc(-c2nc(C)c(N(C)C(=O)OC(C)(C)C)s2)c1` [Compound A12], the “Control of weed species, ORYSA” value was 1.

A further assay relates to Alopecurus myosuroides (ALOMY). Kind of assay: Post-emergence herbicidal activity. The settings on record: post-emergence application, 1000 g/Ha, evaluated after 13 days, scale 0-5. In kind it is in vivo. The essentials:
as §2
As for `Cc1nc(-c2cncc(C#N)c2)sc1N(C)C(=O)OC(C)(C)C` [Compound A7], the “Control of weed species, ALOMY” value is 1.

For `CCOC(=O)N(C)c1sc(-c2cccnc2)nc1C` [Compound A19, ethyl N-methyl-N-[4-methyl-2-(3-pyridyl)thiazol-5-yl]carbamate], the “Control of weed species, ALOMY” value was determined as 1.

On to `Cc1nc(-c2cncc(C=O)c2)sc1N(C)C(=O)OC(C)(C)C` [Compound A5], for which the “Control of weed species, ALOMY” value was 0.

With `CSc1cncc(-c2nc(C)c(N(C)C(=O)OC(C)(C)C)s2)c1` [Compound A12], the “Control of weed species, ALOMY” value turned out to be 0.

A further assay deals with Echinochloa crus-galli (ECHCG). In words: Post-emergence herbicidal activity. In kind it is in vivo. Conditions: post-emergence application, 1000 g/Ha, evaluated after 13 days, scale 0-5; Table 7. The essentials:
as §2
As to `Cc1nc(-c2cncc(C#N)c2)sc1N(C)C(=O)OC(C)(C)C` [Compound A7], the “Control of weed species, ECHCG” value stood at 5.

With `CCOC(=O)N(C)c1sc(-c2cccnc2)nc1C` [Compound A19, ethyl N-methyl-N-[4-methyl-2-(3-pyridyl)thiazol-5-yl]carbamate], the “Control of weed species, ECHCG” value turned out to be 5.

`Cc1nc(-c2cncc(C=O)c2)sc1N(C)C(=O)OC(C)(C)C` [Compound A5]: the “Control of weed species, ECHCG” value is 0.

On to `CSc1cncc(-c2nc(C)c(N(C)C(=O)OC(C)(C)C)s2)c1` [Compound A12], for which the “Control of weed species, ECHCG” value turned out to be 4.

A further assay has as its system Triticum aestivium (TRZAW). In words: Post-emergence herbicidal activity. Format: in vivo. The settings on record: post-emergence application, 1000 g/Ha, evaluated after 13 days, scale 0-5. The procedure, abridged: as §2
As to `Cc1nc(-c2cncc(C#N)c2)sc1N(C)C(=O)OC(C)(C)C` [Compound A7], the “Control of weed species, TRZAW” value was found to be 2.

On to `CCOC(=O)N(C)c1sc(-c2cccnc2)nc1C` [Compound A19, ethyl N-methyl-N-[4-methyl-2-(3-pyridyl)thiazol-5-yl]carbamate], for which the “Control of weed species, TRZAW” value is listed as 1.

Consider `Cc1nc(-c2cncc(C=O)c2)sc1N(C)C(=O)OC(C)(C)C` [Compound A5], for which the “Control of weed species, TRZAW” value amounted to 0.

In the case of `CSc1cncc(-c2nc(C)c(N(C)C(=O)OC(C)(C)C)s2)c1` [Compound A12], the “Control of weed species, TRZAW” value came out at 2.

A further assay deals with Lolium perenne (LOLPE). Kind of assay: Post-emergence herbicidal activity. Format: in vivo. Conditions: post-emergence application, 1000 g/Ha, evaluated after 13 days, scale 0-5; Table 7. The procedure, abridged: as §2
With `Cc1nc(-c2cncc(C#N)c2)sc1N(C)C(=O)OC(C)(C)C` [Compound A7], the “Control of weed species, LOLPE” value was 3.

As to `CCOC(=O)N(C)c1sc(-c2cccnc2)nc1C` [Compound A19, ethyl N-methyl-N-[4-methyl-2-(3-pyridyl)thiazol-5-yl]carbamate], the “Control of weed species, LOLPE” value came out at 2.

`Cc1nc(-c2cncc(C=O)c2)sc1N(C)C(=O)OC(C)(C)C` [Compound A5]: the “Control of weed species, LOLPE” value was 0.

In the case of `CSc1cncc(-c2nc(C)c(N(C)C(=O)OC(C)(C)C)s2)c1` [Compound A12], the “Control of weed species, LOLPE” value is reported as 3.
